Measurements from patent US5449662A, “Atrial natriuretic peptide clearance inhibitors which resist degradation” (Scios Nova Inc., priority 1992, dated 1995).

Test system: Female Sprague-Dawley rats
Test: In vivo diuresis and natriuresis in anesthetized rats
Design: species or system rat
Conditions: 300 ng/kg/min infusion, mean ± SE, n = 7
Protocol: The ability of analog #1 to effect diuresis and natriuresis in whole animals was determined as follows. Female Sprague-Dawley rats (230-260 g) anesthetized with inactin (100 mg/kg body weight) were catheterized by placing cannulae in femoral artery (B.P. monitoring), femoral vein (infusion of drugs and saline) and bladders (collection of urine). Post surgery, and prior to administration of test substance, saline was infused at 20 ul/min for 45 min in order to stabilize urine flow. Stabilization of urine flow was determined by collection of urine during several 10 min periods. Once stable urine flow was obtained, three 10 min control periods were collected followed by infusion of test compounds at 20 ul/min for 1 hr after priming with 10 times the infusion dose. Following experimental infusion period, saline was infused at 20 ul/min for 2 additional hr during the recovery phase. The urine volume collected during ten minute collection periods was determined gravimetrically. Urinary sodium excretion UNa V was determined photometrically.
Analog #1 infused at 10 ug/kg/min gives a mean 10-fold increase in urinary sodium excretion and a 2- to 3-fold increase in urinary flow rate. Maximal effects are not observed until the second or third experimental collection period and are sustained through the infusion.

hANP(102-126): human atrial natriuretic peptide 102-126, comparison in rat diuresis/natriuresis (WDSSDRSALLKSKLRALLTAPRSLR; Atrial natriuretic factor; UniProt P01160 102-126, looked up, fragment)
UNa V (urinary sodium excretion), difference between experimental and control periods: 2.24 ± 0.77 uEq/min | V (urine flow), difference between experimental and control periods: 16.8 ± 9.3 µL/min
